Test results as given in PubChem BioAssay AID1963867 (Molecular Pharmacology Branch, DTP, NCI, 2024).

Test system: KRAS-mutant PDC tumor spheroid with HUVEC/MSC, viability
Assay: Anticancer human tumor 327498-153-R-J2-PDC patient-derived uterine carcinosarcoma cell line growth inhibition [KRAS2]
Conditions: for IC50: curve of first compound; for viability, T/C: stronger effect = lower value
Description: Multicellular complex tumor spheroid response to RAS pathway inhibitors in combination with a targeted agents in patient-derived cell lines with oncogenic KRAS variants from multiple cancer types
A high-throughput screen of multi-cell type tumor spheroids was designed to identify active combinations of targeted small molecules and KRAS pathway inhibitors. Complex spheroids include a stromal component modeled by human endothelial cells (HUVEC) and fibroblasts modeled by human mesenchymal stem cells (MSCs). The concentration ranges selected for each drug and investigational agent were based upon clinically achievable concentrations if the clinical Cmax of the agent was known.
Compounds. The drugs and investigational agents: BI-3406 (NSC825286), BAY-293 (NSC824723), batoprotafib (TNO155; NSC825523), sotorasib (AMG 510; NSC818433), MRTX1257 (NSC819558), elimusertib (BAY 1895344; NSC800525), molibresib (GSK525762; NSC774829), temuterkib (LY3214996; NSC803410), venetoclax (NSC766270), alisertib (NSC759677), olaparib (NSC753686), talazoparib (NSC767125), erdafitinib (NSC781556), ipatasertib (NSC767898), cabozantinib (NSC761068), nintedanib (NSC756659), abemaciclib (NSC768073), docetaxel (NSC628503), trametinib (NSC758246), and sapanisertib (NSC764658) were obtained from the National Cancer Institute (NCI) Developmental Therapeutics Program Chemical Repository. The FDA-approved anticancer drug set is available from the Developmental Therapeutics Program. […] The stock solutions were prepared in dimethyl sulfoxide (DMSO, Sigma-Aldrich, St. Louis, MO, cat. D2650) at 800-fold the tested concentration and stored at -70 degrees C prior to their use. All drugs and investigational agents were tested over a range starting from a high concentration at or near the clinical Cmax and decreasing in half-log increments. If the clinical Cmax for an agent had not been determined, the highest concentration tested was 10 microM.
Cell Culture. All cells were maintained in an incubator at 37 degrees C and 5% CO2 with 95% humidity. The PDC lines were cultured according to standard operating procedures established by the NCI PDMR (https://pdmr.cancer.gov/sops/default.htm). Briefly, all PDCs were thawed and cultured in Matrigel-coated flasks prepared with a working solution of 1X Ham's F-12 nutrient mix, without supplementation (Invitrogen, Waltham, MA, cat. 11765054), 100 U/mL penicillin-streptomycin (Invitrogen, cat. 15140122), and 2.5% Matrigel (Corning Inc., Corning, NY, cat. 354248) for the first three passages. All PDCs were cultured in complete DMEM/F-12 media containing advanced DMEM/F-12 (Invitrogen, cat. 12634028), 4.9% defined fetal bovine serum, heat inactivated (HyClone Laboratories Inc., Logan, UT, cat. SH30070.03HI), 389 ng/mL hydrocortisone (Sigma-Aldrich, cat. H4001), 9.7 ng/mL human EGF recombinant protein (Invitrogen, cat. PHG0313), 23.4 microg/mL adenine (Sigma-Aldrich, cat. A2786), 97.3 U/mL penicillin-streptomycin (Invitrogen, cat. 15140122), 1.9 mM L-glutamine (Invitrogen, cat. 25030081), and 9.7 microM Y-27632 dihydrochloride (Tocris Bioscience, Bristol, United Kingdom, cat. 1254). The PDCs were cultured in complete DMEM/F12 media without 9.7 microM Y-27632 dihydrochloride for at least two passages prior to the screen. The established cell line HOP-62 was cultured in RPMI 1640 medium, HEPES (Invitrogen, cat. 22400105) with 10% defined fetal bovine serum (HyClone Laboratories Inc., cat. SH30070.03) and 2 mM L-glutamine (Invitrogen, cat. 25030081). The pooled donor HUVEC were cultured in endothelial cell growth medium 2 (PromoCell, Heidelberg, Germany, cat. C-22011) and the hMSC were cultured in mesenchymal stem cell growth medium 2 (PromoCell, cat. C-28009). For all experiments, HUVEC and hMSC were used at passages </=5, while the malignant cell lines were used at passages </=15. […]

[1] = second compound 0.1 µM, first compound 0.0316 µM
[2] = second compound 0.1 µM, first compound 0.1 µM
[3] = second compound 0.1 µM, first compound 0.316 µM
[4] = second compound 0.1 µM, first compound 1 µM
[5] = second compound 0.1 µM, first compound 3.16 µM
[6] = second compound 0.1 µM, first compound 10 µM
[7] = second compound 0.316 µM, first compound 0.0316 µM
[8] = second compound 0.316 µM, first compound 0.1 µM
[9] = second compound 0.316 µM, first compound 0.316 µM
[10] = second compound 0.316 µM, first compound 1 µM
[11] = second compound 0.316 µM, first compound 3.16 µM
[12] = second compound 0.316 µM, first compound 10 µM
[13] = second compound 1 µM, first compound 0.0316 µM
[14] = second compound 1 µM, first compound 0.1 µM
[15] = second compound 1 µM, first compound 0.316 µM
[16] = second compound 1 µM, first compound 1 µM
[17] = second compound 1 µM, first compound 3.16 µM
[18] = second compound 1 µM, first compound 10 µM
[19] = second compound 3.16 µM, first compound 0.0316 µM
[20] = second compound 3.16 µM, first compound 0.1 µM
[21] = second compound 3.16 µM, first compound 0.316 µM
[22] = second compound 3.16 µM, first compound 1 µM
[23] = second compound 3.16 µM, first compound 3.16 µM
[24] = second compound 3.16 µM, first compound 10 µM
[25] = second compound 10 µM, first compound 0.0316 µM
[26] = second compound 10 µM, first compound 0.1 µM
[27] = second compound 10 µM, first compound 0.316 µM
[28] = second compound 10 µM, first compound 1 µM
[29] = second compound 10 µM, first compound 3.16 µM
[30] = second compound 10 µM, first compound 10 µM
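Also: spheroids exposed to agents for seven days before reading.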
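For viability, T/C in this document: 100% = DMSO vehicle wells so lower means fewer viable cells.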

Structure (SMILES)	IC50 (second compound 0.1 µM)	IC50 (second compound 0.316 µM)	IC50 (second compound 1 µM)	IC50 (second compound 3.16 µM)	viability, T/C [1]	viability, T/C [2]	viability, T/C [3]	viability, T/C [4]	viability, T/C [5]	viability, T/C [6]	viability, T/C [7]	viability, T/C [8]	viability, T/C [9]	viability, T/C [10]	viability, T/C [11]	viability, T/C [12]	viability, T/C [13]	viability, T/C [14]	viability, T/C [15]	viability, T/C [16]	other results
CC1(C)CCC(CN2CCN(c3ccc(C(=O)NS(=O)(=O)c4ccc(NCC5CCOCC5)c([N+](=O)[O-])c4)c(Oc4cnc5[nH]ccc5c4)c3)CC2)=C(c2ccc(Cl)cc2)C1 + C=CC(=O)N1CCN(c2nc(OCC3CCCN3C)nc3c2CCN(c2cccc4cccc(C)c24)C3)CC1CC#N	1650 nM	1100 nM	< 31.6 nM	< 31.6 nM	56.8%	59.2%	52%	53%	45.9%	12.1%	48.7%	49%	58.4%	52.2%	27.3%	1.57%	44.5%	44.1%	44.9%	48%	IC50 (second compound 0.0316 µM): 1990 nM; viability, T/C (second compound 0.0316 µM, first compound 0.0316 µM): 70.1%; viability, T/C (second compound 0.0316 µM, first compound 0.1 µM): 66.6%; viability, T/C (second compound 0.0316 µM, first compound 0.316 µM): 72.7%; viability, T/C (second compound 0.0316 µM, first compound 1 µM): 63.8%; viability, T/C (second compound 0.0316 µM, first compound 3.16 µM): 40.2%; viability, T/C (second compound 0.0316 µM, first compound 10 µM): 8.7%; viability, T/C [17]: 18.5%; viability, T/C [18]: 0.31%; viability, T/C [19]: 1.15%; viability, T/C [20]: 1.18%; viability, T/C [21]: 0.54%; viability, T/C [22]: 0.45%; viability, T/C [23]: 1.03%; viability, T/C [24]: 0.39%
O=C(c1cc(Cc2n[nH]c(=O)c3ccccc23)ccc1F)N1CCN(C(=O)C2CC2)CC1 + CC1OCC2(CCN(c3cnc(Sc4ccnc(N)c4Cl)c(N)n3)CC2)C1N	1660 nM	1080 nM	242 nM	< 31.6 nM	81.3%	83.8%	75%	62.6%	34.8%	19.4%	70.4%	68.6%	62.6%	52.2%	31.7%	17.5%	104%	60.7%	44.2%	40.9%	IC50 (second compound 10 µM): < 31.6 nM; viability, T/C [17]: 21.9%; viability, T/C [18]: 14.2%; viability, T/C [19]: 40.5%; viability, T/C [20]: 37.6%; viability, T/C [21]: 38.1%; viability, T/C [22]: 28.7%; viability, T/C [23]: 17.9%; viability, T/C [24]: 13.8%; viability, T/C [25]: 36.7%; viability, T/C [26]: 31.8%; viability, T/C [27]: 27.1%; viability, T/C [28]: 25.3%; viability, T/C [29]: 15.9%; viability, T/C [30]: 11.4%
CC(C)NCC(C(=O)N1CCN(c2ncnc3c2C(C)CC3O)CC1)c1ccc(Cl)cc1 (centres undefined) + CC1OCC2(CCN(c3cnc(Sc4ccnc(N)c4Cl)c(N)n3)CC2)C1N	105 nM	< 31.6 nM	< 31.6 nM	< 31.6 nM	59.3%	52.5%	32.5%	22.5%	16.5%	11.9%	43.1%	33%	16.4%	13.8%	10.8%	7.02%	29.1%	20.7%	14.5%	8.77%	IC50 (second compound 10 µM): < 31.6 nM; viability, T/C [17]: 7.91%; viability, T/C [18]: 5.17%; viability, T/C [19]: 20.9%; viability, T/C [20]: 15.3%; viability, T/C [21]: 9.04%; viability, T/C [22]: 6.16%; viability, T/C [23]: 5.92%; viability, T/C [24]: 4.91%; viability, T/C [25]: 16.4%; viability, T/C [26]: 12.2%; viability, T/C [27]: 9.27%; viability, T/C [28]: 6.34%; viability, T/C [29]: 4.8%; viability, T/C [30]: 3.45%
CC1COCCN1c1cc(-c2ccnn2C)c2ccnc(-c3ccn[nH]3)c2n1 (centres undefined)	–	–	–	–	–	–	–	–	–	–	–	–	–	–	–	–	–	–	–	–	viability, T/C (compound 0.1 µM): 16.4% [middle of 5 runs]; viability, T/C (compound 0.316 µM): 6.37% [middle of 5 runs]; viability, T/C (compound 1 µM): 5.03% [middle of 5 runs]; viability, T/C (compound 3.16 µM): 4.84% [middle of 5 runs]
